Data on one compound can be found in publication PMC12160547, “Identification of a Novel Small Molecule STING Agonist Reshaping the Immunomicroenvironment of Pancreatic Ductal Adenocarcinoma” (International Journal of Biological Sciences, 2025).

The target in one data set is T1, h-STING (Homo sapiens, UniProt Q86WV6, G230A/R293Q/R71H).
T1 construct: THP1-Dual Fold (10 μM); endogenous in cells; host or cells: THP1-Dual
Nature of the data set: THP1-Dual reporter activation fold. In kind it is cell-based.

A further data set concerns the target T2, m-STING (Mus musculus, UniProt Q3TBT3).
T2 construct: Raw-lucia Fold (50 μM); endogenous in cells; host or cells: RAW-Lucia
T2 sequence (Q3TBT3 1-378): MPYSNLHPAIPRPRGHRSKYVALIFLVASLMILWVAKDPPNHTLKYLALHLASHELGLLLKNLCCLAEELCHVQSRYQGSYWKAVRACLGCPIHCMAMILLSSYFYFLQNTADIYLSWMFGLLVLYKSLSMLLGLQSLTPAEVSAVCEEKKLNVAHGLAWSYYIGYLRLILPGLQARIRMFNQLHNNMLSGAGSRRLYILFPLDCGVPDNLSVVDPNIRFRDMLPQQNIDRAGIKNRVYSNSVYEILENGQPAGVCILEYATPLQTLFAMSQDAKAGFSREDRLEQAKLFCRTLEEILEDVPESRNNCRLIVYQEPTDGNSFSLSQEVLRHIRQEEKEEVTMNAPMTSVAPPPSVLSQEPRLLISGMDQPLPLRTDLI
The data set can be described thus: Raw-lucia reporter activation fold. The data set is classed as cell-based.

A further data set concerns STING signaling. The data set can be described thus: Relative gene expression in RAW-Lucia cells (RT-qPCR). The data set is classed as cell-based, mouse. The protocol:
RNA from tumor tissues or cells was extracted using the SteadyPure Universal RNA Extraction Kit (Accurate Biology) and reverse transcribed into cDNA with the Evo M-MLV Reverse Transcription Kit (Accurate Biology). Relative RNA expression levels were quantified using 2X Universal SYBR Green Fast qPCR Mix (Abclonal), and the results were recorded on the qTOWER®3 84 Real-Time PCR system.
In general terms: In qPCR the cycle at which signal appears reflects the starting amount.

Data set [1] is described as follows: Metabolite profiling in liver microsomes, 60 min incubation. Conditions: D166 incubated 60 min; selected ion chromatographic peak areas. In kind it is in vitro ADME, rat.
Data set [2] concerns pancreatic tumor organoids. Nature of the data set: Pancreatic tumor organoid viability (AO/PI staining, CellTiter-Glo 3D). The data set is classed as cell-based, human. The text has this: Pancreatic tumor organoids were derived from patients diagnosed with pancreatic ductal adenocarcinoma at Ruijin Hospital, affiliated with Shanghai Jiao Tong University School of Medicine. Inclusion criteria required a confirmed histopathological diagnosis of pancreatic ductal adenocarcinoma and the absence of prior neoadjuvant treatment. After obtaining informed consent from the patients, tumor tissues were excised during surgery and preserved in a tissue preservation solution (Absin). The tumor samples were promptly minced into small fragments in pre-chilled RPMI-1640 and digested for 20 minutes at 37°C using the Human Tumor Dissociation Kit (Miltenyi Biotec). The resulting single-cell suspension was filtered through a 100-µm mesh (Falcon) and seeded onto Matrigel (Corning). Following a 30-minute incubation at 37°C, OM12 (Omabio) complete organoid medium was added around the periphery of the Matrigel. The tissue-derived cells successfully grew in a three-dimensional format. The viability of the organoids was assessed using CellTiter-Glo® 3D Cell Viability Assay (Promega) reagents. […] Luminescence was subsequently measured using the BioTek Synergy LX multimode reader (Agilent). […] Acridine orange (AO) binds to the nuclei of all cells, emitting green fluorescence, while propidium iodide (PI) penetrates the cell membrane to stain dead cells red. […]
In general terms: Cellular ATP, detected with luciferase, serves as a proxy for viable cell number.

The subject of data set [3] is STING and downstream signaling molecules. Nature of the data set: STING pathway western blot in Panc-1 cell line. In kind it is cell-based. Conditions: human pancreatic cell line Panc-1. The protocol:
Tumor tissues or cells were thoroughly lysed in RIPA buffer containing protease and phosphatase inhibitors. The lysates were then centrifuged to collect the supernatant. Proteins were separated by electrophoresis in MOPS buffer and subsequently transferred onto a PVDF membrane. After blocking, the membrane was sequentially incubated with the primary antibody, secondary antibody, and chemiluminescent substrate (ECL) for imaging.
Western Blot showing cGAS-STING pathway protein expression of Panc-1 cell line
(B) CCK8 of Panc-1 cell line when
(C-D) Representative image (C) and statistic (D) of […]

Data set [4] relates to pancreatic orthotopic tumor. Nature of the data set: Pancreatic orthotopic tumor model. The data set is classed as in vivo, C57BL/6 mice. The protocol:
For the pancreatic orthotopic tumor model, mice were anesthetized using […] (2,2,2-tribromoethanol) (Aladdin), and the pancreas was surgically exposed. Approximately 5 × 10^5 tumor cells suspended in 50 μL PBS were injected into the pancreas. The incision was then closed, and the mice were allowed to recover under close observation. On days 9, 12, and 15, the mice received intraperitoneal injections of three different concentrations of the drug. As with the subcutaneous model, the mice were euthanized on day 25, tumors were collected, weighed, and further analyzed. Additionally, at least 10 mice from each group were randomly selected to undergo the same treatments without euthanasia, and their survival times were recorded to generate survival curves.
Pancreatic orthotopic tumor models were established using mouse pancreatic tumor cell lines (Pan02-luc and KPC-luc). Mice were intraperitoneally injected with 200 µL of D-Luciferin working solution (15 mg/mL) (Yeasen) and continuously anesthetized with isoflurane. Ten minutes after injection, the intensity and distribution of luciferase luminescence were measured using the Tanon ABL-X5 in vivo imaging system. Tumor size was monitored weekly, with consistent exposure times and intensities for imaging.
(§1) Multiplex cytokine detection was performed using Luminex cytokine bead array technology provided by WayenBio, Shanghai. In the mouse tumor model, levels of multiple cytokines were simultaneously measured and normalized to tumor weight. For the quantification of specific cytokines, such as IL-6 and IFN-β, enzyme-linked immunosorbent assay (ELISA) kits from Abclonal were used. The assays were conducted according to the manufacturer's instructions.

The test system of data set [5] is subcutaneous pancreatic tumor. The data set can be described thus: Subcutaneous pancreatic tumor model. The data set is classed as in vivo, C57BL/6 mice. Here is the method:
C57BL/6 mice were obtained from Phenotek (Shanghai) and randomly assigned to groups, with a minimum of six mice per group. For the subcutaneous tumor model, approximately 5 × 10^5 tumor cells were suspended in 150 μL PBS and injected into the left flank of the mice. Tumor size was measured every four days starting from day 7 post-injection. On days 9, 12, and 15, the mice were administered three different concentrations of the drug via peritumoral injection, while the Control group received only the solvent. The mice were euthanized on day 25, and tumors were excised, weighed, and further analyzed.
as §1

Data set [6] concerns subcutaneous pancreatic tumor. Nature of the data set: CD45.1 T cell or BMDM transfer into CD45.2 tumor-bearing mice. In kind it is in vivo.
[7] abbreviates: CD45.1 bone marrow-derived macrophages transferred.

T1 sequence (Q86WV6 whole entry R71H/G230A/R293Q): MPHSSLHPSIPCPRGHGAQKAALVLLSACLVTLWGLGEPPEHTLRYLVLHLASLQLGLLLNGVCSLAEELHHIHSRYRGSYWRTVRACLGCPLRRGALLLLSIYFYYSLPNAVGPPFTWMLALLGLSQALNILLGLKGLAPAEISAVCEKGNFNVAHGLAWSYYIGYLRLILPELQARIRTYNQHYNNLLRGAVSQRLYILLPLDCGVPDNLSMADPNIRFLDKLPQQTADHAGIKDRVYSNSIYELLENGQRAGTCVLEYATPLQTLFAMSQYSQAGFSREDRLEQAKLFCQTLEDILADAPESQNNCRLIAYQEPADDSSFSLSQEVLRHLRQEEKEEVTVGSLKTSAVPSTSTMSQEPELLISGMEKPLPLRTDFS

Turning to `[2H]C([2H])([2H])Oc1cc2cc(C(=O)CCC(=O)O)sc2cc1OC([2H])([2H])[2H]` [D166], the “THP1-Dual Fold (10 μM)” value on h-STING amounted to 60.46 Fold. Moreover, the “Raw-lucia Fold (50 μM)” value on m-STING turned out to be 25.34 Fold. The “Relative expression (Cxcl10/actin)” value in the data set with STING signaling is reported as 158.00 ± 2.91. For the same compound, the “Relative Peak Area Abundance (%) RLM” value in data set [1] is recorded as 97.7%. For the same compound, the “viability of pancreatic tumor organoids” value in data set [2] (increased concentration of D166) was “decreased viability”. In addition, the “inhibiting organoid viability compared with ADU-S100, MSA-2, SR-717, MK-1454 and DXMAA” value in data set [2] (organoids, 10μM) was “better efficacy”. Further, the “activation of STING and downstream signaling molecules” value in [3] was “dose- and time-dependent manner”. Moreover, in [4] (higher D166 doses, ELISA), the “cytokine levels in the TME, including IL-6, IFN-β, and TNF-α” value is given as “elevated cytokine levels”. The “inhibition of tumor proliferation, weekly in vivo imaging” value in data set [4] (increasing D166 concentrations, compared with DMXAA) is “more potent effect than DMXAA”. The pancreatic tumor progression entry in data set [4] (intraperitoneal injection at varying doses) was “significant dose-dependent inhibition”. The “IL-6, IFN-β, and TNF-α levels in the TME” value in data set [5] (higher D166 doses, ELISA) is listed as “increased”. The tumor growth result in [5] (peritumoral injection, different doses) was “significant dose-dependent inhibitory effect”. For the same compound, the “antitumor efficacy compared with other STING agonists” value in data set [5] (tumor weight, Figure S4A) was “comparable to that of other STING agonists”. In addition, in data set [6] (CD45.1 T cells transferred, D166 concentration increased), the tumor progression entry is on record as “slowed”. In addition, in [6] (setting [7]), the “expression of M1 macrophage markers (CD86 and iNOS) in CD45.1 macrophages” value is reported as “increased”; the “expression of M2 markers in CD45.1 macrophages” value is “decreased”. Besides, the “IFNG, GZMB, and PDCD1 in the CD45.1 T cells” value in data set [6] (sorted CD45.1 cells) was “significant upregulation”.
